From the C3SDB collision cross section collection
“And” between values parts separate entries of the source, which are not always exact repeats. Equal values may be shown once.

Conditions: instrument: DT, single field, calibrated with ESI Low Concentration Tuning Mix (Agilent)

Row | Compound | collision cross section (N2) ([M+H]+) | collision cross section (N2) ([M-H]-) | collision cross section (N2) ([M+K]+) [Å²] | collision cross section (N2) ([M+Na]+) | collision cross section (N2) ([M+Na-2H]-) | collision cross section (N2) ([M+H2O-H]-) [Å²]
1 | OC[C@H]1O[C@H](O[C@H]2[C@H](O)[C@@H](O)[C@H](O)O[C@@H]2CO)[C@H](O)[C@@H](O)[C@@H]1O [MALTOSE] |  | 180.1 Å² | 181.7 | 178.9 Å² |  | 
2 | O=C(O)Cc1ccccc1O [2-HYDROXYPHENYLACETATE] |  | 130.1 Å² |  |  |  | 
3 | CCCCCCCCCCCCCCCC(=O)OC(CC(=O)[O-])C[N+](C)(C)C (stereo not drawn) [PALMITOYLCARNITINE] | 213.9 Å² |  |  | 219.7 Å² |  | 
4 | CC(C)(COP(=O)(O)OP(=O)(O)OC[C@H]1O[C@@H](n2cnc3c(N)ncnc32)[C@H](O)[C@@H]1OP(=O)(O)O)[C@@H](O)C(=O)NCCC(=O)NCCSC(=O)C[C@@](C)(O)CC(=O)O [3-HYDROXY-3-METHYLGLUTARYL-COA] | 265.4 Å² | 261.9 Å² |  | 266.2 Å² | 267.3 Å² | 
5 | Nc1ncnc2c1ncn2[C@H]1C[C@H](O)[C@@H](COP(=O)(O)O)O1 [DEOXYADENOSINE MONOPHOSPHATE] | 168.5 Å² | 164.9 Å² |  | 173 Å² | 169.8 Å² | 
6 | CCCCCCCCCCCCCCC[C@@H](O)[C@@H](N)CO [SPHINGANINE] | 189 Å² |  |  | 191.1 Å² |  | 
7 | Nc1ncnc2c1ncn2C1OC(CO)C2OP(=O)(O)OC21 (stereo not drawn) [ADENOSINE 2',3'-CYCLIC PHOSPHATE] | 168.1 Å² | 169.4 Å² |  | 175.1 Å² and 181 Å² |  | 173.5
8 | OC1OC[C@@H](O)[C@H](O)[C@H]1O (stereo partly drawn) [XYLOSE] |  |  |  | 134.9 Å² |  | 
9 | O=c1[nH]c(=O)c2[nH]c(=O)[nH]c2[nH]1 [URATE] | 130.7 Å² |  |  |  |  | 
10 | N[C@@H](Cc1cnc[nH]1)C(=O)O [HISTIDINE] | 131.7 Å² and 132.1 Å² | 128.1 Å² and 128.5 Å² |  | 134.6 Å² and 134.8 Å² |  | 
11 | CC(=O)N[C@@H](CCC(=O)O)C(=O)O [N-ACETYLGLUTAMATE] |  | 136.9 Å² |  | 142.4 Å² | 143.3 Å² | 
12 | Cn1cnc2c1c(=O)[nH]c(=O)n2C [THEOBROMINE] | 131.2 Å² and 136.9 Å² |  |  |  |  | 
13 | Nc1nc(=O)c2ncn([C@@H]3O[C@H](CO)[C@@H](O)[C@H]3O)c2[nH]1 [GUANOSINE] | 163.4 Å² | 162.1 Å² | 174.3 | 174.9 Å² |  | 
14 | O=C(O)c1ccc(=O)[nH]c1 [6-HYDROXYNICOTINATE] | 128.9 Å² |  |  |  |  | 
15 | NCCc1ccc(O)c(O)c1 [DOPAMINE] | 142.3 Å² | 131.8 Å² |  |  |  | 
16 | Nc1nc(=O)c2nccnc2[nH]1 [PTERIN] | 128.6 Å² | 128.1 Å² |  | 143.4 Å² |  | 
17 | Cn1cnc(C[C@H](N)C(=O)O)c1 [1-METHYL-L-HISTIDINE] | 133.4 Å² |  |  | 138.4 Å² |  | 
18 | OC[C@H]1OC(O)[C@@H](O)[C@@H](O)[C@@H]1O (stereo partly drawn) [MANNOSE] |  |  |  | 141.5 Å² |  | 
19 | OC1C(O)C(O)C(O)C(O)C1O (stereo not drawn) [MYOINOSITOL] |  | 131.3 Å² |  | 148.6 Å² |  | 

Row | Compound | collision cross section (N2) ([M+H]+) | collision cross section (N2) ([M-H]-) | collision cross section (N2) ([M+K]+) [Å²] | collision cross section (N2) ([M+Na]+) | collision cross section (N2) ([M+Na-2H]-) | collision cross section (N2) ([M+H2O-H]-) [Å²]
20 | O=c1[nH]c(=O)c2[nH]cnc2[nH]1 [XANTHINE] | 129.9 Å² | 120.6 Å² |  |  |  | 
21 | O=c1ccn([C@@H]2O[C@H](CO)[C@@H](O)[C@H]2O)c(=O)[nH]1 [URIDINE] |  | 150.7 Å² |  | 160.9 Å² |  | 
22 | C=CC1=C(C)C(/C=c2\[nH]/c(=C\c3[nH]c(/C=C4\NC(=O)C(C)=C4C=C)c(C)c3CCC(=O)O)c(CCC(=O)O)c2C)=NC1=O [BILIVERDIN] | 243.9 Å² | 246 Å² |  | 246.5 Å² |  | 
23 | COc1cc(C(O)CN)ccc1O (stereo not drawn) [NORMETANEPHRINE] |  |  |  | 155 Å² |  | 
24 | CCCCCCCCCCCCCCCCCCCC(=O)O [ARACHIDATE] |  | 185.1 Å² |  |  |  | 
25 | Nc1nc(=O)c2ncn([C@@H]3O[C@H](COP(=O)(O)OP(=O)(O)OP(=O)(O)O)[C@@H](O)[C@H]3O)c2[nH]1 [GUANOSINE TRIPHOSPHATE] |  | 193 Å² |  |  | 184.2 Å² | 
26 | NC(CO)Cc1cnc[nH]1 (stereo not drawn) [HISTIDINOL] | 128.7 Å² | 127.5 Å² |  | 131.9 Å² |  | 
27 | Nc1nc(=O)c2ncn([C@@H]3O[C@H](COP(=O)(O)OP(=O)(O)O[C@H]4O[C@H](CO)[C@@H](O)[C@H](O)[C@@H]4O)[C@@H](O)[C@H]3O)c2[nH]1 [GUANOSINE DIPHOSPHATE MANNOSE] | 227.4 Å² | 209 Å² |  | 222.3 Å² | 205.5 Å² and 217.2 Å² | 
28 | OC[C@@H](O)C(O)[C@@H](O)CO (stereo partly drawn) [RIBITOL] |  | 125.8 Å² |  | 136.2 Å² |  | 
29 | NC(CCSCC(N)C(=O)O)C(=O)O (stereo not drawn) [CYSTATHIONINE] | 147.3 Å² | 141.9 Å² |  | 147.1 Å² | 144.6 Å² | 
30 | Nc1ccn([C@H]2C[C@H](O)[C@@H](COP(=O)(O)O)O2)c(=O)n1 [DEOXYCYTIDINE MONOPHOSPHATE] |  | 162.4 Å² |  | 157 Å² and 164.7 Å² |  | 
31 | OC[C@H]1OC(O)[C@H](O)[C@H](O)[C@@H]1O (stereo partly drawn) [ALLOSE] |  |  |  | 143.2 Å² and 146.2 Å² |  | 
32 | N[C@@H]1[C@@H](O)[C@H](O)[C@@H](COS(=O)(=O)O)O[C@H]1O [GLUCOSAMINE 6-SULFATE] |  | 149.4 Å² |  |  |  | 
33 | CN(CC(=O)O)/C(N)=N/P(=O)(O)O [PHOSPHOCREATINE] | 144.6 Å² and 144.8 Å² |  |  |  | 142.7 Å² and 142.8 Å² | 
34 | O=c1ccn([C@@H]2O[C@H](COP(=O)(O)OP(=O)(O)OP(=O)(O)O)[C@@H](O)[C@H]2O)c(=O)[nH]1 [URIDINE TRIPHOSPHATE] | 187 Å² | 180.1 Å² and 180.2 Å² |  | 188.8 Å² | 190.2 Å² | 
35 | OCC1(O)OC[C@@H](O)[C@@H](O)[C@H]1O (stereo partly drawn) [PSICOSE] |  |  |  | 137.6 Å² |  | 
36 | Nc1nc(=O)c2ncn([C@@H]3O[C@@H]4COP(=O)(O)O[C@H]4[C@H]3O)c2[nH]1 [CYCLIC GMP] | 172.4 Å² | 167.8 Å² |  | 184.2 Å² | 169.7 Å² | 
37 | NCCc1cc(O)c(O)cc1O [6-HYDROXYDOPAMINE] | 143 Å² |  |  |  |  | 
38 | O=c1[nH]c(=O)c2nccnc2[nH]1 [2,4-DIHYDROXYPTERIDINE] | 132.4 Å² | 125.3 Å² |  | 143.8 Å² |  | 

Continued, values first:

Row | collision cross section (N2) ([M+H]+) | collision cross section (N2) ([M-H]-) | collision cross section (N2) ([M+K]+) [Å²] | collision cross section (N2) ([M+Na]+) | collision cross section (N2) ([M+Na-2H]-) | collision cross section (N2) ([M+H2O-H]-) [Å²] | Compound
39 | 138.1 Å² | 118.2 Å² |  |  |  |  | NCC(N)C(=O)O (stereo not drawn) [2,3-DIAMINOPROPIONATE]
40 |  | 125.5 Å² |  | 142.2 Å² |  |  | NC(=O)NC1NC(=O)NC1=O (stereo not drawn) [ALLANTOIN]
41 | 130.7 Å² |  |  |  |  |  | NCC(=O)CCC(=O)O [5-AMINOLEVULINATE]
42 | 198.8 Å² | 196.3 Å² | 207.2 | 203 Å² |  |  | CC(=O)OCC(=O)[C@@]1(O)CC[C@H]2[C@@H]3CCC4=CC(=O)CC[C@]4(C)[C@H]3[C@@H](O)C[C@@]21C [CORTISOL 21-ACETATE]
43 | 127.9 Å² | 126.2 Å² and 126.3 Å² |  | 139.3 Å² |  |  | O=C(O)[C@@H]1C[C@@H](O)CN1 [TRANS-4-HYDROXY-L-PROLINE]
44 |  | 119.8 Å² |  |  |  |  | O=C(O)c1ccccc1[O-] [SALICYLATE]
45 |  |  | 130.5 |  |  |  | C[N+](C)(C)CC(=O)[O-] [BETAINE]
46 | 136.8 Å² | 130.2 Å² |  | 148 Å² | 147 Å² |  | NC(N)=N[C@@H](CC(=O)O)C(=O)O [GUANIDINOSUCCINATE]
47 |  | 130.2 Å² |  |  |  |  | O=C([O-])C(O)c1ccccc1 (stereo not drawn) [MANDELATE]
48 | 137.1 Å² | 130 Å² |  | 138.2 Å² | 136.7 Å² |  | NC(CSCC(=O)O)C(=O)O (stereo not drawn) [S-CARBOXYMETHYLCYSTEINE]
49 | 130.3 Å² | 143.6 Å² |  |  | 127.6 Å² |  | N[C@@H](CCS)C(=O)O [HOMOCYSTEINE]
50 | 130.9 Å² | 127.3 Å² |  |  |  |  | NC(=O)CC[C@H](N)C(=O)O [GLUTAMINE]
51 | 131.2 Å² | 127.8 Å² |  |  |  |  | Nc1c(O)cccc1C(=O)O [3-HYDROXYANTHRANILATE]
52 | 139.6 Å² | 125.7 Å² |  |  |  |  | Nc1cc(C(=O)O)ccc1[O-] [3-AMINO-4-HYDROXYBENZOATE]
53 |  | 124.6 Å² |  |  |  |  | O=C(O)c1cc(O)ccc1[O-] [2,5-DIHYDROXYBENZOATE]
54 |  | 121.9 Å² |  | 129.5 Å² |  |  | NC(=O)C[C@H](N)C(=O)O [ASPARAGINE]
55 |  | 135.1 Å² |  |  |  |  | NC1(C(=O)[O-])CC1 [1-AMINOCYCLOPROPANECARBOXYLATE]
